Laboratory results published in US7662857B2, “Diagnostic agents for pancreatic exocrine function” (Tokyo Gas Company Limited, priority 2001, dated 2010).

Key:
[1] = test system: pancreatic exocrine function; assay: 13C-dipeptide breath test in normal rats (Δ13C in exhaled CO2 after oral administration); assay type: in vivo, rat; conditions: for Δ^13C(‰) peak value / Peak time: oral 35 μmol/kg (5 ml/kg); for Δ^13C(‰) peak value: exhaled CO2; for Δ^13C(‰) value at 5 min after the administration / Δ^13C(‰) value at 10 min after the administration / Δ^13C(‰) value at 15 min after the administration / Δ^13C(‰) value at 20 min after the administration: normal rats, mean±SD; for Δ^13C(‰) value at 5 min after the administration / Δ^13C(‰) value at 10 min after the administration / Δ^13C(‰) value at 15 min after the administration / Δ^13C(‰) value at 20 min after the administration / Δ^13C(‰) peak value compared with the peak value of Bz-Ala-(^13C-Ala)-ONa: oral 35 μmol/kg; for Δ^13C(‰) peak value compared with the peak value of Bz-Ala-(^13C-Ala)-ONa: comparison in words
Method: (§1) Overnight-fasted rats (male, Wistar, 8-week old) in the awake state were individually fixed in a rat holder of a microwave irradiation apparatus. The breath was collected at a rate of about 100 to 300 ml/min using a stroke pump (Variable Stroke Pump VS-500; Shibata Kagaku Kogyo), and the CO2 concentration therein was maintained at about 3%. A Perma Pure drier (MD-050-12P; Perma Pure INC.) was set between the rat holder and the stroke pump to remove water vapor from the breath. When the CO2 concentration was stabilized, the rat was temporarily released from the rat holder. A ^13C-labeled dipeptide or a sodium salt thereof each dissolved in distilled water was administered to the stomach of the rat using an oral probe [dose: 35 μmol/kg (5 ml/kg)]. The breath was sampled with a syringe every 5 min until up to 20 min. A 15 ml sample was transferred from the syringe into a vacuum vial (10 ml), sealed and subjected to automated analysis by GC-MS (Breath MAT) [FinniganMAT]. Δ^13C(‰) was calculated from δ^13C values which are ^13C values of a sample (i.e. differences from the standard substance PDB) using the following formula. Δ^13C(‰)=(δ^13C)tmin−((δ^13C)0 min <Breath MAT Measuring Conditions>
Apparatus: Breath MAT plus (Finningan)
Using Ac-Met-(^13C-Ala)-ONa, Z-Met-(^13C-Ala)-ONa, Boc-Met-(^13C-Ala)-ONa or Boc-Phe-(^13C-Ala)-ONa [dose: 35 μmol/kg (5 ml/kg)], ^13C-breath tests were carried out in the same manner as in Example 12. The resultant Δ^13C(‰) peak values were compared with the Δ^13C(‰) peak value in the Bz-Ala-(^13C-Ala)-ONa breath test.
(§2) As in Example 12, Bz-Phe-(^13C-Ala)-ONa [dose: 12.6 mg/kg (35 μmol/kg)], Bz-Gln-(^13C-Ala)-ONa [dose: 12.0 mg/kg (35 μmol/kg)], Bz-Val-(^13C-Ala)-ONa [dose: 11.0 mg/kg (35 μmol/kg)], Bz-Tyr-(^13C-Ala)-ONa [dose: 13.2 mg/kg (35 μmol/kg)], Bz-Met-(^13C-Ala)-ONa [dose: 12.1 mg/kg (35 μmol/kg)], Bz-Ser-(^13C-Ala)-ONa [dose: 10.6 mg/kg (35 μmol/kg)], Bz-Thr-(^13C-Ala)-ONa [dose: 11.0 mg/kg (35 μmol/kg)] or Boc-Phe-(^13C-Ala)-ONa [dose: 8.84 mg/kg (24.6 μmol/kg)] was administered orally to normal rats and chronic pancreatitis rats. Then, the time course of the degree of increase of the ^13C concentration in exhaled CO2 (Δ^13C(‰)) was measured.

[2] = test system: pancreatic exocrine function; assay: 13C-dipeptide breath test in chronic pancreatitis rats (oleic acid injected into pancreatic duct); assay type: in vivo, rat; conditions: oral 35 μmol/kg, mean±SD
Method: as §1
Chronic pancreatitis rats were created according to the method of Mundlos et al., Pancreas 1:29 (1986). Oleic acid was injected into the pancreatic duct of 5-week old Wistar male rats. After breeding for 3 weeks, they were used in ^13C-dipeptide breath tests.
as §2

[3] = Table 1, overnight-fasted Wistar rats
[4] = Table 1, overnight-fasted Wistar rats, peak in time course of Δ13C(‰) up to 20 min

SMILES | Δ^13C(‰) peak value [1, 3] | Peak time [1, 4] [min] | Δ^13C(‰) peak value compared with the peak value of Bz-Ala-(^13C-Ala)-ONa ([1]; rats) | other results
C[C@H](NC(=O)[C@H](Cc1ccc(O)cc1)NC(=O)c1ccccc1)[13C](=O)[O-].[Na+] [Na salt of Bz-Tyr-(^13C-Ala), N-benzoyl-L-tyrosyl-^13C-L-alanine] | 52.64 ‰ | 15 | higher | Δ^13C(‰) value at 5 min after the administration [1]: 10.33±6.34 ‰; Δ^13C(‰) value at 10 min after the administration [1]: 33.62±4.76 ‰; Δ^13C(‰) value at 15 min after the administration [1]: 52.64±11.32 ‰; Δ^13C(‰) value at 20 min after the administration [1]: 45.61±5.27 ‰; Δ^13C(‰) value at 5 min after the administration [2]: 4.35±3.11 ‰; Δ^13C(‰) value at 10 min after the administration [2]: 15.65±7.93 ‰; Δ^13C(‰) value at 15 min after the administration [2]: 24.68±9.48 ‰; Δ^13C(‰) value at 20 min after the administration [2]: 29.25±9.98 ‰
CC(C)[C@H](NC(=O)c1ccccc1)C(=O)N[C@@H](C)[13C](=O)[O-].[Na+] [Na salt of Bz-Val-(^13C-Ala), N-benzoyl-L-valyl-^13C-L-alanine] | 52.89 ‰ | 15 | higher | Δ^13C(‰) value at 5 min after the administration [1]: 13.98±6.59 ‰; Δ^13C(‰) value at 10 min after the administration [1]: 35.22±8.02 ‰; Δ^13C(‰) value at 15 min after the administration [1]: 52.89±11.18 ‰; Δ^13C(‰) value at 20 min after the administration [1]: 45.38±6.53 ‰; Δ^13C(‰) value at 5 min after the administration [2]: 2.21±2.74 ‰; Δ^13C(‰) value at 10 min after the administration [2]: 10.62±12.40 ‰; Δ^13C(‰) value at 15 min after the administration [2]: 18.80±19.39 ‰; Δ^13C(‰) value at 20 min after the administration [2]: 23.95±19.38 ‰
C[C@H](NC(=O)[C@@H](NC(=O)c1ccccc1)[C@@H](C)O)[13C](=O)[O-].[Na+] [Na salt of Bz-Thr-(^13C-Ala), N-benzoyl-L-threonyl-^13C-L-alanine] | 47.36 ‰ | 10 | higher | Δ^13C(‰) value at 10 min after the administration [1]: 47.36±10.99 ‰; Δ^13C(‰) value at 15 min after the administration [1]: 47.11±5.67 ‰; Δ^13C(‰) value at 10 min after the administration [2]: 12.67±19.74 ‰; Δ^13C(‰) value at 15 min after the administration [2]: 19.78±24.70 ‰
C[C@H](NC(=O)[C@H](CC(N)=O)NC(=O)c1ccccc1)[13C](=O)[O-].[Na+] [Na salt of Bz-Asn-(^13C-Ala), reference compound] | 41.74 ‰ | 15 |  | 
C[C@H](NC(=O)[C@H](CCCNC(=N)N)NC(=O)c1ccccc1)[13C](=O)O [Bz-Arg-(^13C-Ala), reference compound] | 42.83 ‰ | 15 |  | 
CSCC[C@H](NC(=O)OCc1ccccc1)C(=O)N[C@@H](C)[13C](=O)[O-].[Na+] [Na salt of Z-Met-(^13C-Ala), benzyloxycarbonyl-L-methionyl-^13C-L-alanine] |  |  | higher | Peak time ([1]; Table 2, rats): 15 min; Δ^13C(‰) peak value ([1]; Table 2, rats): 48.71 ‰
CC(C)C[C@H](NC(=O)c1ccccc1)C(=O)N[C@@H](C)[13C](=O)[O-].[Na+] [Na salt of Bz-Leu-(^13C-Ala), reference compound] | 42.77 ‰ | 15 |  | 
C[C@H](NC(=O)[C@H](Cc1ccccc1)NC(=O)c1ccccc1)[13C](=O)[O-].[Na+] [Na salt of Bz-Phe-(^13C-Ala), N-benzoyl-L-phenylalanyl-^13C-L-alanine] | 55.62 ‰ | 10 | higher | Δ^13C(‰) value at 5 min after the administration [1]: 29.32±13.57 ‰; Δ^13C(‰) value at 10 min after the administration [1]: 55.62±6.62 ‰; Δ^13C(‰) value at 15 min after the administration [1]: 45.44±3.44 ‰; Δ^13C(‰) value at 5 min after the administration [2]: 4.17±3.95 ‰; Δ^13C(‰) value at 10 min after the administration [2]: 14.56±10.79 ‰; Δ^13C(‰) value at 15 min after the administration [2]: 22.80±12.36 ‰
C[C@H](NC(=O)[C@H](CCCCN)NC(=O)c1ccccc1)[13C](=O)O [Bz-Lys-(^13C-Ala), reference compound] | 38.57 ‰ | 15 |  | 
C[C@H](NC(=O)[C@H](Cc1c[nH]c2ccccc12)NC(=O)c1ccccc1)[13C](=O)[O-].[Na+] [Na salt of Bz-Trp-(^13C-Ala), reference compound] | 39.76 ‰ | 15 |  | 
C[C@H](NC(=O)CNC(=O)c1ccccc1)[13C](=O)[O-].[Na+] [Na salt of Bz-Gly-(^13C-Ala), reference compound] | 32.14 ‰ | 20 |  | 
CSCC[C@H](NC(C)=O)C(=O)N[C@@H](C)[13C](=O)[O-].[Na+] [Na salt of Ac-Met-(^13C-Ala), acetyl-L-methionyl-^13C-L-alanine] |  |  | higher | Peak time ([1]; Table 2, rats): 15 min; Δ^13C(‰) peak value ([1]; Table 2, rats): 63.15 ‰
C[C@H](NC(=O)[C@H](Cc1cnc[nH]1)NC(=O)c1ccccc1)[13C](=O)[O-].[Na+] [Na salt of Bz-His-(^13C-Ala), reference compound] | 36.17 ‰ | 20 |  | 
C[C@H](NC(=O)[C@H](CC(=O)O)NC(=O)c1ccccc1)[13C](=O)[O-].[Na+] [Na salt of Bz-Asp-(^13C-Ala), reference compound] | 11.47 ‰ | 20 |  | 
CC[C@H](C)[C@H](NC(=O)c1ccccc1)C(=O)N[C@@H](C)[13C](=O)[O-].[Na+] [Na salt of Bz-Ile-(^13C-Ala), reference compound] | 39.82 ‰ | 20 |  | 
CSCC[C@H](NC(=O)OC(C)(C)C)C(=O)N[C@@H](C)[13C](=O)[O-].[Na+] [Na salt of Boc-Met-(^13C-Ala), t-butyloxycarbonyl-L-methionyl-^13C-L-alanine] |  |  | higher | Peak time ([1]; Table 2, rats): 15 min; Δ^13C(‰) peak value ([1]; Table 2, rats): 55.50 ‰
C[C@H](NC(=O)c1ccccc1)C(=O)N[C@@H](C)[13C](=O)[O-].[Na+] [Na salt of Bz-Ala-(^13C-Ala), reference compound] | 45.88 ‰ | 10 |  | Peak time ([1]; Table 2, rats): 10 min; Δ^13C(‰) peak value ([1]; Table 2, rats): 45.88 ‰
C[C@H](NC(=O)[C@H](CS)NC(=O)c1ccccc1)[13C](=O)[O-].[Na+] [Na salt of Bz-Cys-(^13C-Ala), reference compound] | 31.52 ‰ | 10 |  | 
